Test results: ChEMBL document CHEMBL3875185, “Structure-anticonvulsant activity studies in the group of (E)-N-cinnamoyl aminoalkanols derivatives monosubstituted in phenyl ring with 4-Cl, 4-CH3 or 2-CH3” (Bioorg Med Chem, 2017)

Columns and labels:
Mus musculus = experiment: Anticonvulsant activity in ip dosed maximal electroshock induced seizure mouse model assessed as suppression in hindlimb tonic extension; type: functional
Rattus norvegicus = experiment: Anticonvulsant activity in ip dosed maximal electroshock induced seizure Sprague-Dawley rat model assessed as suppression in hindlimb tonic extension; type: functional
[1] = target: Adenosine receptor A2a (Homo sapiens) (UniProt P29274); experiment: Displacement of [3H]CGS 21680 from human recombinant adenosine receptor A2A expressed in HEK293 cells at 100 uM measured after 120 mins by scintillation counting method relative to control; type: cell-based
Sequence of Adenosine receptor A2a (Homo sapiens) (P29274 whole entry): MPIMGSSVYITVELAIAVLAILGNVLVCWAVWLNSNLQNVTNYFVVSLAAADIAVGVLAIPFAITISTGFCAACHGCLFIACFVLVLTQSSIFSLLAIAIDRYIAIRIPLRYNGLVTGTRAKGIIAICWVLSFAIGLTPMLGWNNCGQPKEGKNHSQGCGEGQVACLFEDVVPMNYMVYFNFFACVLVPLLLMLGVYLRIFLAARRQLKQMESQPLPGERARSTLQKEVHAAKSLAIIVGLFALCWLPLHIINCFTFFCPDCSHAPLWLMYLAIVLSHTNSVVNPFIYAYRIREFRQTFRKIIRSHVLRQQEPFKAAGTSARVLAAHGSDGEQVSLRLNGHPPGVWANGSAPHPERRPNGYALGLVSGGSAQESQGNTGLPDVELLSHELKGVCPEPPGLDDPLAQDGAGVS

[2] = target: T1, Adenosine receptor A3 (Homo sapiens) (UniProt P0DMS8); experiment: Displacement of [125I]AB-MECA from human recombinant adenosine receptor A3 expressed in HEK293 cells at 100 uM measured after 120 mins by scintillation counting method relative to control; type: cell-based
T1 sequence (whole entry): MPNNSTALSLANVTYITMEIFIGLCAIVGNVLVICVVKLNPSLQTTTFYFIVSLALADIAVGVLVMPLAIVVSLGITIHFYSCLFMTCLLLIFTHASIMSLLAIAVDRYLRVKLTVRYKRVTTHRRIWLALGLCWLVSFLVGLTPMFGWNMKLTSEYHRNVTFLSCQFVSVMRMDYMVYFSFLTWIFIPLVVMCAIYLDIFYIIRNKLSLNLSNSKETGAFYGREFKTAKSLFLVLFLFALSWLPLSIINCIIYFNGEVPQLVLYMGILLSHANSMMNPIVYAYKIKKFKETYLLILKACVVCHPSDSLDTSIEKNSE

[3] = target: Adrenergic receptor alpha-1 (Rattus norvegicus) (UniProt P15823+P23944+P43140); experiment: Displacement of [3H]prazosin from rat cerebral cortex alpha-1 adrenergic receptor at 100 uM measured after 60 mins by scintillation counting method relative to control
[4] = target: T2, Cholecystokinin receptor type A (Homo sapiens) (UniProt P32238); experiment: Displacement of [125I]CCK-8s from human recombinant CCK1 receptor expressed in CHO cells at 100 uM measured after 60 mins by scintillation counting method relative to control; type: cell-based
T2 sequence (whole entry): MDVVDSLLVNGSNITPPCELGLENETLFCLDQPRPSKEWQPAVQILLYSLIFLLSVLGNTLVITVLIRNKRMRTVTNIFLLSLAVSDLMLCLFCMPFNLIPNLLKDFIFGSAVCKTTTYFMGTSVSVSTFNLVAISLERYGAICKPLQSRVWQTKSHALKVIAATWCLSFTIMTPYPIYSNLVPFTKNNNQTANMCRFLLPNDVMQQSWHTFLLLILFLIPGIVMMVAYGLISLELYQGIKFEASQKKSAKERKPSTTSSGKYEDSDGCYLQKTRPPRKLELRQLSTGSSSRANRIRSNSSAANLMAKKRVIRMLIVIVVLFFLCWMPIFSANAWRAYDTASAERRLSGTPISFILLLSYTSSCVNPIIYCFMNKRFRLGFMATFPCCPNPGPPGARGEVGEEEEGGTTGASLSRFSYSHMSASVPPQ

[5] = target: T3, C-C chemokine receptor type 1 (Homo sapiens) (UniProt P32246); experiment: Displacement of [125I]MIP-1a from human recombinant CCR1 receptor expressed in HEK293 cells at 100 uM measured after 120 mins by scintillation counting method relative to control; type: cell-based
T3 sequence (whole entry): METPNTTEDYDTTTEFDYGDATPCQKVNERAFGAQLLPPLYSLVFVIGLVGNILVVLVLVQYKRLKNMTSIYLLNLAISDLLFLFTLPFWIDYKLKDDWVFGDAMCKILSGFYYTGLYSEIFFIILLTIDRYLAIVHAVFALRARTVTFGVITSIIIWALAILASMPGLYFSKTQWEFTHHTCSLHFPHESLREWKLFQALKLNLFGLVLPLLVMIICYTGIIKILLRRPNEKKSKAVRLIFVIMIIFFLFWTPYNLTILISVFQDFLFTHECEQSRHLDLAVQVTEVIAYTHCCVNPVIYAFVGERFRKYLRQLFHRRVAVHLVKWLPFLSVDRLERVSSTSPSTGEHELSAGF

[6] = target: Melatonin receptor type 1A (Homo sapiens) (UniProt P48039); experiment: Displacement of [125I]2-iodomelatonin from human recombinant MT1 receptor expressed in CHO cells at 100 uM measured after 60 mins by scintillation counting method relative to control; type: cell-based
Sequence of Melatonin receptor type 1A (Homo sapiens) (P48039 whole entry): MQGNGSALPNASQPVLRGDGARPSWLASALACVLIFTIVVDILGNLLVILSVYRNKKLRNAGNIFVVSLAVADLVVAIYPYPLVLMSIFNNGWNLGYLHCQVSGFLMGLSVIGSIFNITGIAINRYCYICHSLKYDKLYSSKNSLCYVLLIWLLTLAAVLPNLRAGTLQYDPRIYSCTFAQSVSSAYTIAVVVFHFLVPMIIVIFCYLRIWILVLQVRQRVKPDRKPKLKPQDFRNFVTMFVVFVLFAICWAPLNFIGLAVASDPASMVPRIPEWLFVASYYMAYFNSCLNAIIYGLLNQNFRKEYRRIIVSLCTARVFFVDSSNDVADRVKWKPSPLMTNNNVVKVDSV

[7] = target: T4, Peroxisome proliferator-activated receptor gamma (Homo sapiens) (UniProt P37231); experiment: Displacement of [3H]rosiglitazone from human recombinant PPAR-gamma receptor expressed in Escherichia coli at 100 uM measured after 120 mins by scintillation counting method relative to control
T4 sequence (whole entry): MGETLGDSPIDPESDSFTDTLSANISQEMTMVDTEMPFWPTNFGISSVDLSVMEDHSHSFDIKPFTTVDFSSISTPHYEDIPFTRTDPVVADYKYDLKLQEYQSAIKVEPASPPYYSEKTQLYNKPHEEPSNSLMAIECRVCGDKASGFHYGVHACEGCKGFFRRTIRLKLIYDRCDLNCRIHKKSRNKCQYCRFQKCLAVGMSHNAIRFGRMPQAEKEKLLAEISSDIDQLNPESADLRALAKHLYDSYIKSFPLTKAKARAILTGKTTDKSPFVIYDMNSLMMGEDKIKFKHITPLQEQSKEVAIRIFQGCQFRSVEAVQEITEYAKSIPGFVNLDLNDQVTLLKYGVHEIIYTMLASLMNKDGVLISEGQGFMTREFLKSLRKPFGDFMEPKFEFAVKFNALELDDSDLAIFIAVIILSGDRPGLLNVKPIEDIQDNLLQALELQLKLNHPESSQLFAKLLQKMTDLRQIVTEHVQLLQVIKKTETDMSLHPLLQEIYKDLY

Jurkat = experiment: Displacement of [3H]DTG from sigma receptor in human Jurkat cells at 100 uM measured after 120 mins by scintillation counting method relative to control; type: cell-based
[8] = target: T5, Vasoactive intestinal polypeptide receptor 1 (Homo sapiens) (UniProt P32241); experiment: Displacement of [125I]VIP from human recombinant VPAC1 receptor expressed in CHO cells at 100 uM measured after 60 mins by scintillation counting method relative to control; type: cell-based
T5 sequence (whole entry): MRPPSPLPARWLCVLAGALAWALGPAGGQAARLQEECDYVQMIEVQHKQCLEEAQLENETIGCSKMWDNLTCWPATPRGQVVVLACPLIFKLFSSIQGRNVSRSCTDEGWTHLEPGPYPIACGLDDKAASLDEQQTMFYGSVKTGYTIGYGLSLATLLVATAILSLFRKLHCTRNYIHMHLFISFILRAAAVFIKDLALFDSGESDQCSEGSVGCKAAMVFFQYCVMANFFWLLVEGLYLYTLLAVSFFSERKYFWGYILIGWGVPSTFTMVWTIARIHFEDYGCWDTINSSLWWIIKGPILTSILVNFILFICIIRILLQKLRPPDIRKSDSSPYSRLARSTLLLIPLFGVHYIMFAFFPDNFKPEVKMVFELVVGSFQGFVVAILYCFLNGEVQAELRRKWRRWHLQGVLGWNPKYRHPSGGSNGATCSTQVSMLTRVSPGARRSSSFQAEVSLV

Structure (SMILES) | ED50 (Mus musculus) | ED50 (Rattus norvegicus) | inhibition [1] | inhibition [2] | inhibition [3] | inhibition [4] | inhibition [5] | inhibition [6] | inhibition [7] | inhibition (Jurkat) | inhibition [8]
CCC(CO)NC(=O)/C=C/c1ccc(Cl)cc1 (stereo not drawn) | 53.8 mg/kg | 21.2 mg/kg | 27.3% | 52.5% | 9.9% | 11% | -2.2% | 4.3% | 26.7% | 25.4% | 4.8%
Cc1ccccc1/C=C/C(=O)N[C@@H](C)CO | 42.6 mg/kg | 16.3 mg/kg | 3.8% | 17.1% | 11.5% | -5.8% | -3.7% | 14.5% | 3% | -3.5% | 2%
CC(O)CNC(=O)/C=C/c1ccc(Cl)cc1 (stereo not drawn) | 55.6 mg/kg | 41.9 mg/kg | 25.2% | 29.9% | 17.3% | 26% | -2% | 10.6% | 2.3% | 22.9% | -0.4%
